Results reported in publication PMC9332833 (Cancers, 2022).

What was measured:
[1] = test system: CD34+ cells from CML patients; experiment: Annexin V apoptosis assay, CML CD34+ cells; type: cell-based; details: Homo sapiens, 24 h
Method: Blood samples were taken (venipuncture, EDTA-K2 Vacutainer tubes, Becton Dickinson, Franklin Lakes, NJ, USA) from 8 chronic phase CML patients (CML1–CML8; 4 men and 4 women, aged 39–79) diagnosed at the Department of Hematology, University Clinical Center, Medical University of Warsaw, following their written consent. The diagnosis was carried out by qualified clinical staff based on an interview, blood parameters and molecular tests detecting BCR-ABL1 (transcript b3a2). Peripheral blood mononuclear cells were immediately isolated from the fresh blood sample using standard protocol (Supplementary Methods). […]
Cells were seeded in 6-well plates (K562 or K562-MDR1) or in 24-well plates (CD34^+ cells). […] After a further 24 h, cells were stained using the Annexin V-FITC kit for the detection of apoptosis (BD, Franklin Lakes, NJ, USA) and immediately analyzed on a BD FACSCalibur using CellQuest software (BD, Franklin Lakes, NJ, USA). […]
incubated overnight at 37 °C and analyzed using an iMark Microp late absorbance reader (Bio-Rad, Hercules, CA, USA). Results were calculated relative to control cells treated with DMSO only.
[…] Stained cells were immediately analyzed on a BD FACSCalibur using CellQuest softwa re (BD, Franklin Lakes, NJ, USA). […]

[2] = Body and organ weights in K562 xenograft mice; details: for Brain weight / Heart weight / Kidneys weight / Liver weight / Lung weight / Splean weight: mean ± SD, N=4
Method: Eight-week-old female NOD.Cg-Prkdcscid Il2rgtm1Wjl/SzJ NSG mice (Jackson Laboratory, Bar Harbor, ME, USA) were injected subcutaneously into the dorsal fold with 1 × 10^6 K562 cells of the human chronic myeloid leukemia (CML) line in a final volume of 100 µL (0.5% of the mouse weight). On day 3 after cell administration, mice were randomly assigned to each group, and on days 4–17 of the experiment, the selected tested compounds and control solutions were administered intraperitoneally or orally. During the experiment, subcutaneous tumors and body weight were measured daily. Tumor growth during the experiment was measured with an electronic display caliper. The theoretical tumor volume [mm], was calculated according to the formula (a^2 × b) * 0.5, where a is the shorter tumor axis [mm] and b is the longer tumor axis [mm]. On day 26, the experiment was terminated: blood was collected and analyzed for cellular morphology and standard biochemistry metabolites. Tumors were weighed.
Control and treated mice were grouped according to the tested compounds and the scheme of their administrations (doses, administration frequencies, routes of administration) in the CML xenogeneic model obtained by subcutaneous transplantation of 1 × 10^6 cells of the human CML blast line K562 into mice NOD.Cg-Prkdcscid Il2rgtm1Wjl/SzJ (NSG).
Hydroxyurea K562 500 mg/kg, IP Aqua pro 1 x daily 8

CCC12C(=O)C(CC)(C(c3ccccc3)=C1c1ccccc1)C1C(=O)N(CC(O)CNC(C)C)C(=O)C12 (stereo not shown) [BK124.1, 4-[2-hydroxy-3-(propan-2-ylamino)propyl]-1,7-diethyl-8,9-diphenyl-4-azatricyclo [5.2.1.02,6]dec-8-ene-3,5,10-trione]
viability at […] ([1]; 2.5 µM): 10%
viability at 5 µM ([1]; 5 µM): 5%
Brain weight ([2]; 20 mg/kg IP daily 14 days): 0.47 ± 0.02 g
Heart weight ([2]; 20 mg/kg IP daily 14 days): 0.10 ± 0.00 g
Kidneys weight ([2]; 20 mg/kg IP daily 14 days): 0.26 ± 0.03 g
Liver weight ([2]; 20 mg/kg IP daily 14 days): 1.09 ± 0.10 g
Lung weight ([2]; 20 mg/kg IP daily 14 days): 0.24 ± 0.10 g
Splean weight ([2]; 20 mg/kg IP daily 14 days): 0.03 ± 0.02 g
Brain weight ([2]; 30 mg/kg IP daily 14 days): 0.47 ± 0.01 g
Heart weight ([2]; 30 mg/kg IP daily 14 days): 0.10 ± 0.02 g
Kidneys weight ([2]; 30 mg/kg IP daily 14 days): 0.28 ± 0.02 g
Liver weight ([2]; 30 mg/kg IP daily 14 days): 1.27 ± 0.11 g
Lung weight ([2]; 30 mg/kg IP daily 14 days): 0.34 ± 0.02 g
Splean weight ([2]; 30 mg/kg IP daily 14 days): 0.03 ± 0.01 g
Morphology or weight of internal organs (liver, spleen, kidneys, lungs, heart) versus untreated controls ([2]; doses as in Table S3): no changes
Total body weight course ([2]; doses as in Table S3, control mice gained mass in the last 5 days): No such increase occurred
